From patent US8633245B2, “PAI-1 inhibitor” (Institute of Medicinal Molecular Design, Inc., priority 2008, dated 2014)

What was measured:
thrombus in AV shunt = test: Test Example 5: anti-thrombotic activity (rat AV shunt model); assay type: in vivo; conditions: mean ± S.E., n=5, vehicle 72.7 ± 2.7
Description: AV shunt model using 7-week old male Crlj: CD (SD) rats were prepared, and anti thrombotic activities when the compounds according to the present invention were administered orally were examined.
Required amount of the test compounds were weighed and suspended by adding 0.5% CMC (carboxymethylcellulose)-Na solution little by little, and the solutions (10 mg/kg or 30 mg/kg solution) were prepared so that their final concentration became 2 mg/ml or 6 mg/ml using a graduated cylinder. 5 ml was prepared for 1 course.
To 7-week old Crlj: CD (SD) male rats, 5 ml/kg of vehicle (0.5% CMC-Na solution) or 5 ml/kg of the administering solution of the test compound (10 mg/kg or 30 mg/kg) were administered orally for 4 days. The administration on the 4th day was carried out about 1 hour before the following perfusion start.
On the connected part where the silk thread was through, parafilm was wrapped around to avoid blood leakage.
Rats were anesthetized with pentobarbital (50 mg/kg; intraperitoneally). Saline was filled in the above catheter, and each of the ends of the catheter was inserted in right carotid artery and left carotid artery, respectively, and blood was circulated. 30 minutes later, the catheter was pinched with forceps to stop blood flow, and tube parts where the silk thread was through were cut and removed. The silk thread was carefully removed from the tubes, remaining wet weight was weighed after removing the liquid phase with filter paper, and further subtraction of the weight of the silk thread, gave the thrombus weight.
For the thrombus weight in each group, an average value±standard error (S.E.) was calculated. For the significance test between the vehicle administered group and the compound according to the present invention administered group, Dunnett's multiple comparison was carried out (significance level 5%). For the test, the SAS System Release 8.2 (TS2M0) for Windows (Registered Trademark) (SAS Institute Inc.) and its cooperative system EXSAS Ver. 7.10 (Arm Systex Co. Ltd.) were employed.

recombinant human PAI-1 = target: T1, recombinant human PAI-1 (Homo sapiens, UniProt P05121); test: Test Example 1: human PAI-1 inhibitory activity (tPA fluorogenic substrate, pH 7.5 Tris buffer); assay type: biochemical; conditions: Tris buffer
T1 construct: purchased Molecular Innovations, Inc
Description: 50 mM Tris, 150 mM NaCl, 10 μg/ml BSA, 0.01% Tween80 (SIGMA-ALDRICH Corporation)

T1 sequence (P05121 24-402): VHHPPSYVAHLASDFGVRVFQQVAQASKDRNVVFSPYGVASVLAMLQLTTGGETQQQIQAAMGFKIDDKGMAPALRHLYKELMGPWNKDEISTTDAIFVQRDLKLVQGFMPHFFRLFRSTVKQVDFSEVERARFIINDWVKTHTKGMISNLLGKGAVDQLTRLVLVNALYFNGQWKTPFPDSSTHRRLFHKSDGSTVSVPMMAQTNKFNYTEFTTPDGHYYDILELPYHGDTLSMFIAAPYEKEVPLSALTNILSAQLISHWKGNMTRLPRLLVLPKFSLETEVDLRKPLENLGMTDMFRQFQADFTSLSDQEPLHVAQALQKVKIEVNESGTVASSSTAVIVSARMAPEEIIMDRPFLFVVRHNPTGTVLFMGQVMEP

SMILES	Thrombus Weight (thrombus in AV shunt; 10 mg/kg/day orally for 4 days) [mg]	Inhibition Rate of PAI-1 Activity (%) (recombinant human PAI-1; Compound Concentration 5 μM)	Inhibition Rate of PAI-1 Activity (%) (recombinant human PAI-1; Compound Concentration 10 μM)	Inhibition Rate of PAI-1 Activity (%) (recombinant human PAI-1; Compound Concentration 25 μM)	Thrombus Weight (thrombus in AV shunt; 30 mg/kg/day orally for 4 days) [mg]
CC(C)(C)c1ccc(COc2ccc(-c3ccc(OC(F)(F)F)cc3)cc2CCC(=O)O)cc1 [Compound 5]	57.5 ± 5.0				
CC(C)(C)c1ccc(CN(C(=O)C(=O)O)c2ccc(-c3ccc(OC(F)(F)F)cc3)cc2)cc1 [Compound 129]	56.7 ± 3.8				
CN(C(=O)C(=O)O)c1cc(-c2ccc(OC(F)(F)F)cc2)ccc1OCc1ccc(C(C)(C)C)cc1 [Compound 17]		37	67	97	60.4 ± 3.8
